According to patent EP4644396A1 (Visionpharma (Nantong) Co., Ltd, priority 2022, dated 2024):
Where two headings read alike, the source gives them in different places.

Experiments:
human TLR7 = target: T1, human TLR7 (Homo sapiens, UniProt Q9NYK1); experiment: HEK-Blue hTLR7 SEAP reporter gene inhibition assay; assay type: cell-based
T1 sequence (Q9NYK1 27-1049): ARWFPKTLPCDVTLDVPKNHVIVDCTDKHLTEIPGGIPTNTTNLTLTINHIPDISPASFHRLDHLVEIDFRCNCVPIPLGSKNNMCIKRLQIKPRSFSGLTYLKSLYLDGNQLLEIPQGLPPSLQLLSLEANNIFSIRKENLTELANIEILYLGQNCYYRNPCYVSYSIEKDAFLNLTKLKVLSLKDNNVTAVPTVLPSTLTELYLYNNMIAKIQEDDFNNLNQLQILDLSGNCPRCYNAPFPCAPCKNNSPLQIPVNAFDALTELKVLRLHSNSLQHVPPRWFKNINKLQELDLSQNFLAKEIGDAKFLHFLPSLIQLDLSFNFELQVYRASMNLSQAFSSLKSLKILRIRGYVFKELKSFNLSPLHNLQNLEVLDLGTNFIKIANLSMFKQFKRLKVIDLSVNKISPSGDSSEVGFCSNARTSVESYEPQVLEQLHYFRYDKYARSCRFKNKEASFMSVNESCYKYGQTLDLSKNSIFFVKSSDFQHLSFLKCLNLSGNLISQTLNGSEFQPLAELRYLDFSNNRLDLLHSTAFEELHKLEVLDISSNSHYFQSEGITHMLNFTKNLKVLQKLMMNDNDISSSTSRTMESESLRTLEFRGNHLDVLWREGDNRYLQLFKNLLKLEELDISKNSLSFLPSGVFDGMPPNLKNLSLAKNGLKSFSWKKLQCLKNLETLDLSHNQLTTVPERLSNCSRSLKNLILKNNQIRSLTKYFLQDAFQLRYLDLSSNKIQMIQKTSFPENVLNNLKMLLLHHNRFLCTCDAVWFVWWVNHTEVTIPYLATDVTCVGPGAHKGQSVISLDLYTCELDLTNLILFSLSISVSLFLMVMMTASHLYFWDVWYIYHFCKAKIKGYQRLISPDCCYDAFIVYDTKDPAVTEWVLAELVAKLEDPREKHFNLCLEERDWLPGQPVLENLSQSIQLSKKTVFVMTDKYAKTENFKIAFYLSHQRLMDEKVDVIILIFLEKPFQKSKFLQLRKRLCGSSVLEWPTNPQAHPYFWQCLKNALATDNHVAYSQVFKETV
Summary of the method: (§1)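 Compounds (final 0.001–36 µM) were added 15 min before stimulation with 10 µM TLR7 agonist Gardiquimod or 10 µM TLR8 ligand for 20 h. Read-out: SEAP from NF-κB/AP-1 reporter in hTLR7 (80,000 cells/well) or hTLR8 (60,000 cells/well) HEK-Blue cells, via Quanti-Blue; IC50 derived.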

human TLR8 = target: T2, human TLR8 (Homo sapiens, UniProt Q9NR97); experiment: HEK-Blue hTLR8 SEAP reporter gene inhibition assay; assay type: cell-based
T2 construct: expressed in transfected cells
T2 sequence (Q9NR97 27-1041): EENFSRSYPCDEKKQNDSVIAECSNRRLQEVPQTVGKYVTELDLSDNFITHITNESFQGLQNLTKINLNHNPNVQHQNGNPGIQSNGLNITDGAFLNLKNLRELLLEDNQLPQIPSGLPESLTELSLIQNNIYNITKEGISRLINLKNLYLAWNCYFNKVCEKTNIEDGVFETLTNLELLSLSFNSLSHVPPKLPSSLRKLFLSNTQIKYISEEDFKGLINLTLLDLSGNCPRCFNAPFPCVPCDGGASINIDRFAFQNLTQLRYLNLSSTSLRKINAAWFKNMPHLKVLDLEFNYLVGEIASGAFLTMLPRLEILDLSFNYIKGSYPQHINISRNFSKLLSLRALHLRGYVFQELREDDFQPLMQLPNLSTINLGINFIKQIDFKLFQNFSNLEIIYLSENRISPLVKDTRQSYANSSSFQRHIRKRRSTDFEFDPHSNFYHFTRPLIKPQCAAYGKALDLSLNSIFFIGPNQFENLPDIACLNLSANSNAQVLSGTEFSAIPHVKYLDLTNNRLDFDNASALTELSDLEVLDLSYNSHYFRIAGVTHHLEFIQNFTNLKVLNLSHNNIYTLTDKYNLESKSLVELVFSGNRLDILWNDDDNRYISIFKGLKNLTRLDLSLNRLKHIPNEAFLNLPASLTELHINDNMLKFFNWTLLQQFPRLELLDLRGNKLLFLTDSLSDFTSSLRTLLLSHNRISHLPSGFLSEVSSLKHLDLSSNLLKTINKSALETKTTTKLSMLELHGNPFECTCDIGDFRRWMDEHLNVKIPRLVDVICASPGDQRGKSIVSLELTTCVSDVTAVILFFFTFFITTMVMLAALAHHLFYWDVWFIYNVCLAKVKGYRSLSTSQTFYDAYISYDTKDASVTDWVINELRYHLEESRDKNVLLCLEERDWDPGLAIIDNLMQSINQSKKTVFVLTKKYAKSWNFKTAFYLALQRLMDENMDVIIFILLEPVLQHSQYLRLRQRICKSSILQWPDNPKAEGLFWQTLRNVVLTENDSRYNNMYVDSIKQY
Summary of the method: as §1

[1] = hTLR7 HEK-Blue cells, TLR7 ligand Gardiquimod 10 µM, 20 hours, SEAP by Quanti-blue, class symbols, read-out: HEK-Blue hTLR7 IC50
[2] = hTLR8 HEK-Blue cells, TLR8 ligand 10 µM, 20 hours, SEAP by Quanti-blue, class symbols, read-out: HEK-Blue hTLR8 IC50

| Molecule | IC50 (human TLR7; [1]) [µM] | IC50 (human TLR8; [2]) [µM] | also measured |
| --- | --- | --- | --- |
| C[C@@H]1CN(c2ccc(C#N)n3ncc(F)c23)Cc2c3c(nn21)CN(C[C@H](O)CO)[C@@H](C)C3 [Example I-160, 4-((4R,9S)-8-((S)-2,3-dihydroxypropyl)-4,9-dimethyl-3,4,7,8,9,10-hexahydropyrido[3',4':3,4]pyrazolo[1,5-a]pyrazin-2(1H)-yl)-3-fluoropyrazolo[1,5-a]pyridine-7-carbonitrile] | > 0.05 | > 0.1 | – |
| C[C@@H]1CN(c2ccc(C#N)n3ncc(F)c23)Cc2c3c(nn21)CN[C@H](CO)C3 [Example I-43, 3-fFuoro-4-((4R,9S)-9-(hydroxymethyl)-4-methyl-3,4,7,8,9,10-hexahydropyrido [3',4':3,4]pyrazolo[1,5-a]pyrazin-2(1H)-yl)pyrazolo[1,5-a]pyridine-7-carbonitrile] | – | – | IC50 (human TLR7; HEK-Blue hTLR7 IC50 (µM)): < 0.05 µM; IC50 (human TLR8; HEK-Blue hTLR8 IC50 (µM)): < 0.1 µM |
| C[C@@H]1CN(c2ccc(C#N)n3ncc(F)c23)Cc2c3c(nn21)CN(CC(=O)N1C[C@H](C)N[C@@H](C)C1)[C@@H](C)C3 [Example I-144, 4-((4R,9S)-8-(2-((3S,5S)-3,5-dimethylpiperazin-1-yl)-2-oxoethyl)-4,9-dimethyl-3,4,7,8,9,10-hexahydropyrido[3',4':3,4]pyrazolo[1,5-a]pyrazin-2(1H)-yl)-3-fluoropyrazolo[1,5-a]pyridine-7-carbonitrile] | < 0.05 | > 0.1 | – |
| C[C@@H]1CN(c2ccc(C#N)n3ncc(F)c23)Cc2c3c(nn21)CNC(CCOC(C)(C)C)C3 (stereo partly drawn) [Example I-61, 4-((4R)-9-(2-(tert-butoxy)ethyl)-4-methyl-3,4,7,8,9,10-hexahydropyridine[3',4':3,4]pyrazole[1,5-a]pyrazine-2(1H)-yl)-3-fluoropyrazole[1,5-a]pyridine-7-caronitrile] | – | – | IC50 (human TLR7; HEK-Blue hTLR7 IC50 (µM)): < 0.05 µM; IC50 (human TLR8; HEK-Blue hTLR8 IC50 (µM)): > 0.1 µM |
| 3-((4R,9S)-2-(7-cyano-3-fluoropyrazolo[1,5-a]pyridin-4-yl)-4,9-dimethyl-1,2,3,4,9,10-hexahydropyrido[3',4':3,4]pyrazolo[1,5-a]pyrazin-8(7H)-yl)cyclobutane-1-carboxamide [Example I-164] | < 0.05 | > 0.1 | – |
| C[C@@H]1CN(c2ccc(C#N)n3ncc(F)c23)Cc2c3c(nn21)CNC(C(C)(C)O)C3 (stereo partly drawn) [Example I-74, 3-Fluoro-4-((4R)-9-(2-hydroxypropan-2-yl)-4-methyl-3,4,7,8,9,10-hexahydropyrido [3',4':3,4]pyrazolo[1,5-a]pyrazin-2(1H)-yl)pyrazolo[1,5-a]pyridine-7-carbonitrile] | > 0.05 | > 0.1 | – |
| 4-((4R,9S)-4,9-dimethyl-8-(2-(4-methylpiperazin-1-yl)-2-oxoethyl)-3,4,7,8,9,10-hexahydropyrido[3',4':3,4]pyrazolo[1,5-a]pyrazin-2(1H)-yl)-3-fluoropyrazolo[1,5-a]pyridine-7-carbonitrile [Example I-128] | < 0.05 | < 0.1 | – |
| C[C@@H]1CN(c2ccc(C#N)n3ncc(F)c23)Cc2c3c(nn21)CN1C(=O)OC[C@@H]1C3 [Example I-95, 3-Fluoro-4-((8R,12aS)-8-methyl-3-oxo-1,8,9,11,12,12a-hexahydro-3H,5H,10H-oxazolyl [3 ‴,4 ':1'6']pyridine and [3',4':3,4]pyrazole [1,5-a]pyrazine-10-yl) pyrazole [1,5-a]pyridine-7-nitrile] | – | – | IC50 (human TLR7; HEK-Blue hTLR7 IC50 (µM)): > 0.05 µM; IC50 (human TLR8; HEK-Blue hTLR8 IC50 (µM)): > 0.1 µM |
| C[C@@H]1CN(c2ccc(C#N)n3ncc(F)c23)Cc2c3c(nn21)CCNC3 [Example I-2, (R)-3-fluoro-4-(7-methyl-1,3,4,7,8,10-hexahydropyrido[4',3':3,4]pyrazolo[1,5-a]pyrazin-9(2H)-yl)pyrazolo[1,5-a]pyridine-7-carbonitrile] | < 0.05 | < 0.1 | – |
| N#Cc1ccc(N2C[C@H](N)C[C@H](C(F)(F)F)C2)c2cccnc12 [Example M5049, reference compound] | – | – | IC50 (human TLR7; hTLR7 HEK-Blue cells, TLR7 ligand Gardiquimod 10 µM, 20 hours, SEAP by Quanti-blue, numeric value, read-out: HEK-Blue hTLR7 IC50): 0.064 µM; IC50 (human TLR8; hTLR8 HEK-Blue cells, TLR8 ligand 10 µM, 20 hours, SEAP by Quanti-blue, numeric value, read-out: HEK-Blue hTLR8 IC50): 0.15 µM |
| C[C@@H]1CN(c2ccc(C#N)c3ncccc23)Cc2c3c(nn21)CN[C@@H](C)C3 [Example I-132, 5-((4R,9S)-4,9-dimethyl-3,4,7,8,9,10-hexahydropyrido[3',4':3,4]pyrazolo[1,5-a]pyrazin-2(1H)-yl)quinoline-8-carbonitrile] | < 0.05 | < 0.1 | – |
| C[C@@H]1CN(c2ccc(C#N)n3ncc(F)c23)Cc2c3c(nn21)CN(Cc1cn[nH]c1)[C@@H](C)C3 [Example I-137, 4-((4R,9S)-8-((1H-pyrazol-4-yl)methyl)-4,9-dimethyl-3,4,7,8,9,10-hexahydropyrido [3',4':3,4]pyrazolo[1,5-a]pyrazin-2(1H)-yl)-3-fluoropyrazolo[1,5-a]pyridine-7-carbonitrile] | < 0.05 | < 0.1 | – |
| C[C@@H]1CN(c2ccc(C#N)n3ncc(F)c23)Cc2c3c(nn21)CCC(C)(N)C3 (single isomer, unassigned) [Example I-80a] | > 0.05 | > 0.1 | – |
| C[C@@H]1CN(c2ccc(C#N)n3ncc(F)c23)Cc2c3c(nn21)CN(CC(C)(C)C(N)=O)[C@@H](C)C3 [Example I-198, 3-((4R,9S)-2-(7-cyano-3-fluoropyrazolo[1,5-a]pyridin-4-yl)-4,9-dimethyl-1,2,3,4,9,10-hexahydropyrido[3',4':3,4]pyrazolo[1,5-a]pyrazin-8(7H)-yl)-2,2-dimethyl propanamide] | > 0.05 | > 0.1 | – |
| C[C@@H]1Cc2c(nn3c2CN(c2ccc(C#N)n4ncc(F)c24)C[C@H]3C)[C@H](C)N1CC(N)=O [Example I-165, 2-((4R,7S,9R)-2-(7-cyano-3-fluoropyrazolo[1,5-a]pyridin-4-yl)-4,7,9-trimethyl-1,2,3,4,9,10-hexahydropyrido[3',4':3,4]pyrazolo[1,5-a]pyrazin-8(7H)-yl)acetamide] | < 0.05 | > 0.1 | – |
| C[C@@H]1CN(c2ccc(C#N)n3ncc(F)c23)Cc2c3c(nn21)[C@@H](C)NCC3 [Example I-21, 4-((4R,7R)-4,7-dimethyl-3,4,7,8,9,10-hexahydropyrido[3',4':3,4]pyrazolo[1,5-a]pyrazin-2(1H)-yl)-3-fluoropyrazolo[1,5-a]pyridine-7-carbonitrile] | < 0.05 | < 0.1 | – |
